Measurements reported in patent publication US6946473B2, “Preparation and use of acetylenic ortho-sulfonamido and phosphinic acid amido bicyclic heteroaryl hydroxamic acids as TACE inhibitors” (priority 1999, dated 2005).

Key:
MMP-1 = target: T1, MMP-1 (Homo sapiens, UniProt P03956); assay: MMP-1 inhibition (thiopeptide or fluorescent peptide substrate); assay type: biochemical
T1 sequence (P03956 100-469): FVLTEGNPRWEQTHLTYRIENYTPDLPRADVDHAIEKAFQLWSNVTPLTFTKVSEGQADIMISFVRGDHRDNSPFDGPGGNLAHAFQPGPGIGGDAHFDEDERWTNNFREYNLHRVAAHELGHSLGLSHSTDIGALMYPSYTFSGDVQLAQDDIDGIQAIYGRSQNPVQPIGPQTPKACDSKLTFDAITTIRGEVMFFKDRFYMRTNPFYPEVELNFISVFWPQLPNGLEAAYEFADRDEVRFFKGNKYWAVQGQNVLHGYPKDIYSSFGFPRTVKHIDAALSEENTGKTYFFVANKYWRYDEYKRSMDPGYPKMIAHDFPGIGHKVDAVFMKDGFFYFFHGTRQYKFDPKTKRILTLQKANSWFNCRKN
Experimental: The enzyme activity is measured by the rate of the color increase. The thiopeptide substrate is made up fresh as a 20 mM stock in 100% DMSO and the DTNB is dissolved in 100% DMSO as a 100 mM stock and stored in the dark at room temperature. Both the substrate and DTNB are diluted together to 1 mM with substrate buffer (50 mM HEPES pH 7.5, 5 mM CaCl2) before use. The stock of enzyme is diluted with buffer (50 mM HEPES, pH 7.5, 5 mM CaCl2, 0.02% Brij) to the desired final concentration.
For either the thiopeptide or fluorescent peptide test procedures, the slope of the line is calculated and represents the reaction rate. The linearity of the reaction rate is confirmed (r^2>0.85). The mean (x±sem) of the control rate is calculated and compared for statistical significance (p<0.05) with drug-treated rates using Dunnett's multiple comparison test.

Row | Structure (SMILES) | melting point [°C] | IC50 (MMP-1) [nM]
1 | CC#CCOc1ccc(S(=O)(=O)N(C)c2c(C(=O)NO)cnc3c2c(C)nn3C)cc1 [Example 7, 4-[(4-But-2-ynyloxy-benzenesulfonyl)-methyl-amino]-1,3-dimethyl-1H-pyrazolo[3,4-b]pyridine-5-carboxylic acid hydroxyamide] | 189 to 192 | 
2 | CC#CCOc1ccc(S(=O)(=O)N(C)c2c(C(=O)NO)cnc3onc(C)c23)cc1 [Example 9, 4-[(4-But-2-ynyloxy-benzenesulfonyl)-methyl-amino]-3-methyl-isoxazolo[5,4-b]pyridine-5-carboxylic acid hydroxyamide] |  | 1910
3 | CC#CCOc1ccc(S(=O)(=O)N(C)c2c(C(=O)NO)cnc3snc(C)c23)cc1 [Example 13, 4-[(4-But-2-ynyloxy-benzenesulfonyl)-methyl-amino]-3-methyl-isothiazolo[5,4-b]pyridine-5-carboxylic acid hydroxyamide] | 183 to 184 | 
